Assay: Liposome formation and sizing after extrusion
Format: physicochemical
Protocol: Two mice studies have been performed for the evaluation of cationic lipids of the present invention, in comparison with DOTIM. In brief, the lipid combinations were tested as carriers for gene transfer by intravenous delivery in ICR female mice (25 g), and expression was determined using the plasmid p4119 containing the CAT reporter gene under the control of the HCMV promoter. The lipids were dissolved in a mixture of chloroform and methanol (1.1). Lipid films of cationic and neutral lipid at a 1:1 molar ratio were formed with a rotary evaporator. The films were hydrated with 5% dextrose in water (D5W) at room temperature and extruded through a series of membranes having pore sizes of 400 nm, 200 nm, and 50 nm.
DNA-liposome complexes were prepared at a 1:10 DNA:cationic lipid ratio (mg DNA per μmole cationic lipid) by adding the DNA, in a solution at 0.625 mg/mL concentration in D5W to the solution of liposomes, in an equal volume, with constant stirring, using a Hamilton Dilutor 540B (Hamilton, Reno, Nev.). The lipids used were MBN 246, 247, 248, 249, 250, 251 and 252 (FIG. 10). MBN 249 was used in a 1:10 ratio with cholesterol. MBN 250 was used in a 1:10 ratio with DLPE. The DNA solution was 0.3125 mg/mL DNA in D5W. […] Zeta potential was determined by a Zeta Plus, Zeta Potential Analyzer (Brookhaven Instruments Corp.).

In the case of “N,N-Dimethyl-N-(2,3-dihydroxypropanylo-N-(2,3-dioleyloxypropanyl)amonium Chloride [MBN305]”, the liposome formation is reported as “forms liposomes easily”.

Source: patent US6649780B1, “Cationic lipids” (Valentis, Inc., priority 1998, dated 2003)
